Data as given in PubChem BioAssay AID179 (DTP/NCI, 2004).
Several values for one entry are separate records, joined by “and”; a condition that tells them apart may be missing. Equal values may be shown once. Activity calls are given as the source filed them.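 The calls were made as follows: active = compounds giving half or more protection of infected cells from virus-caused growth loss, again on retest; inactive = the rest.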

Test system: CEM cells HIV-1 protection, formazan growth assay
Experiment: NCI AIDS Antiviral Assay
Conditions: for IC50: measured here: growth of uninfected CEM cells
Method in brief: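 Five concentrations of each compound were applied to infected and uninfected human CEM cells. Protection from HIV-1 was judged from growth measured with a soluble formazan assay.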

| Structure (SMILES) | EC50 [µM] | IC50 | outcome |
| --- | --- | --- | --- |
| CCOCC1c2ccccc2CCN1Cc1c[nH]c2ccccc12 (stereo not drawn) | > 200 | 19.5 µM | – |
| C=C1c2nc3ccccc3n2C=C(c2ccc(C)cc2)N1c1ccccc1 | > 200 | 1.35 µM | – |
| CSC1=Nc2cccnc2Nc2cscc21 | > 200 | 1.26 µM | – |
| COc1cc2c(cc1O)[C@H](C)C(c1ccc(Cl)cc1)O2 (stereo partly drawn) | > 64.6 | 33.1 µM | – |
| Cc1ccc(S(=O)(=O)C2=Cc3ccc(C(F)(F)F)cc3C2(O)c2cccc(C(F)(F)F)c2)cc1 (stereo not drawn) | > 200 | 2.19 µM | – |
| COc1ccc2c(c1)[n+](=O)c(C(=O)C/C(=N/OCCCc1ccccc1)C(=O)NC13CC4CC(CC(C4)C1)C3)c(C)n2[O-] | > 39.8 | > 39.8 µM | – |
| O=S(CC1(O)CCCCC1)c1ccccc1 (stereo not drawn) | – | – | inactive |
| Cc1ccnc2[nH]c3ccccc3c(=O)c12 | > 200 | 14.5 µM | – |
| CC(=O)OC12c3ccccc3C(c3ccccc31)C1C(=O)N(c3ccccc3O)C(=O)C12 (stereo not drawn) | 100 | 105 µM | – |
| CC1OC(Oc2ccc3c(=O)c(-c4ccc(O)cc4)coc3c2)C(O)C(O)C1O (stereo not drawn) | > 200 | 93.3 µM | – |
| O=S(=O)(O)CCN(CCO)CCO | > 200 | > 200 µM | – |
| NC(=O)C1N=NSC1NC(=O)c1ccc([N+](=O)[O-])cc1 (stereo not drawn) | > 200 | 26.9 µM | – |
| Fc1ccc2nncc(SCc3ccc(Cl)cc3)c2c1 | > 87.1 | > 87.1 µM | – |
| OC[C@H]1N[C@H](CO)[C@@H](O)[C@H]1O | > 200 | 148 µM | – |
| O=C(NNC(=O)c1ccccn1)c1ccccn1 | > 200 | 4.68 µM | – |
| CN(C)C(=O)Nc1cc2c3c(c1)CCCN3CCC2 | 81.3 | 174 µM | – |
| c1c[nH]c(Cc2ncc(Cc3cnc[nH]3)[nH]2)n1 | – | – | inactive |
| C/C(=C\CCC1=CC(=O)OC1)CC[C@@H]1[C@H]2C(=O)CC(C)[C@@]3(C)CC[C@]1(C)[C@@]23C (stereo partly drawn) | > 200 | 34.7 µM | – |
| CC(O)CN(CC(C)O)N(CC(C)O)CC(C)O (stereo not drawn) | > 955 | 219 µM | – |
| Cc1ccc(NC(=O)/C(=N/NC(=O)CC#N)C2C(=O)N(c3ccccc3)N=C2N)cc1C (stereo not drawn) | > 219 | 37.2 µM | – |
| Cc1cccc(NC(=O)O/N=C(\Cl)C(C)C)c1 | > 20 | 2.82 µM | – |

| Structure (SMILES) | EC50 [µM] | IC50 | outcome |
| --- | --- | --- | --- |
| Cc1ccc(C(=O)Nc2ccc(S(=O)(=O)O)c3cc(S(=O)(=O)O)cc(S(=O)(=O)O)c23)cc1NC(=S)Nc1cc(C(=O)Nc2ccc(S(=O)(=O)O)c3cc(S(=O)(=O)O)cc(S(=O)(=O)O)c23)ccc1C | 132 | 204 µM | – |
| CSC12c3cc(C)n(-c4ccccc4)c3CC(C)(C)CN1C(=O)C2Oc1ccccc1 (stereo not drawn) | > 200 | 16.2 µM | – |
| CC(CO)CCNc1ncnc2c1ncn2CCC(=O)O (stereo not drawn) | > 200 | > 200 µM | – |
| Nc1ncc(C[P+](c2ccccc2)(c2ccccc2)c2ccccc2)c(N)n1 | > 200 | > 200 µM | – |
| OC1Cn2cc(Br)c[n+]2C1 (stereo not drawn) | > 200 | > 200 µM | – |
| CCCCCCCCCCCC(O)S(=O)(=O)O (stereo not drawn) | > 200 | 102 µM | – |
| O=c1n(CCCN2CCN(c3cccc(Cl)c3)CC2)nc2n1-c1ccc3ccccc3c1SC2 | > 200 | > 200 µM | – |
| COc1ccc2c(c1)C1(C=N2)CCN(C(C)=O)CC1 | > 138 | > 138 µM | – |
| CC(C)(C)OC(=O)NC(Cc1ccc(OCc2ccccc2)cc1)C(=O)NC(COCc1ccccc1)C(=O)Oc1c(Cl)c(Cl)c(Cl)c(Cl)c1Cl (stereo not drawn) | > 100 | 44.7 µM | – |
| CC1(C)CC(=O)C(C=NC(=S)c2ccccc2)=C(O)C1 | > 200 | > 200 µM | – |
| O=S(CCCl)c1c2ccccc2nc2ccccc12 (stereo not drawn) | > 200 | 30.9 µM | – |
| N#CN=C(N)NC(=O)c1ccccc1 | – | – | inactive |
| CC1(C)OP23(NC(=O)OC2(C(F)(F)F)c2ccccc2O3)OC1(C)C (stereo not drawn) | > 245 | > 245 µM | – |
| CCCCCCCCCCCCCCCCCC(=O)OCC(C[As](=O)(O)O)OC(=O)CCCCCCCCCCCCCCCCC (stereo not drawn) | > 17.8 | > 17.8 µM | – |
| Nc1nc(O)c2ncn([C@H]3CC[C@@H](CO)O3)c2n1 | 1.74 | > 200 µM | – |
| CSc1nc2[nH]c(=O)c(C)nc2c(=O)[nH]1 | > 23.4 | > 23.4 µM | – |
| COCCCN1CC(=O)N2Cc3ccccc3CN2C(=O)C1 | – | > 200 µM | inactive |
| c1ccc(P2c3ccccc3Oc3ccccc32)cc1 | > 200 | 35.5 µM | – |
| Nc1ncnc2c1ncn2C1CCC(=O)C1 (stereo not drawn) | > 1150 | 174 µM | – |
| COc1ccc(S(=O)(=O)Nc2ccccc2C(=O)O)cc1 | – | – | inactive |
| CN(C)CCCn1c2c3ccccc3ccc2c2oc(=O)c3ccccc3c21 | > 33.1 | 1.62 µM | – |

| Structure (SMILES) | EC50 [µM] | IC50 | outcome |
| --- | --- | --- | --- |
| Nc1c(Cl)ncnc1N[C@@H]1C[C@H]1CO | > 200 | > 200 µM | – |
| C[C@@H]1C(=O)OCC2=C3C[C@@H](CC[C@@]3(C)C=CC2=O)[C@H](C)C(=O)OCC2=C3C[C@H]1CC[C@@]3(C)C=CC2=O | > 24.5 | 21.4 µM | – |
| CC(=O)Nc1cc2cc(NS(=O)(=O)c3ccc(Cl)c(Cl)c3)ccc2oc1=O | > 47.9 | > 47.9 µM | – |
| Nc1c(C(=O)O)nnc2cc(Cl)ccc12 | > 200 | 66.1 µM | – |
| COc1c(Cl)cc(C(=CCCCCN[C@H]2CC[C@@]3(C)[C@@H](CC[C@@H]4[C@@H]3CC[C@]3(C)[C@@H](C(C)CCCC(C)C)CC[C@@H]43)C2)c2cc(Cl)c(OC)c(C(=O)O)c2)cc1C(=O)O (stereo partly drawn) | > 200 | > 200 µM | – |
| COc1ccc(/C=C2\SC(c3ccc(OC)cc3)N(NC(=O)Cc3ccccc3)C2=O)cc1 (stereo not drawn) | > 15.5 | > 15.5 µM | – |
| O=C1OS(=O)(=O)c2ccccc21 | > 200 | > 200 µM | – |
| CCC1CN2CCc3cc(OC)c(OC)cc3C2CC1CC1c2cc(OC)c(OC)cc2CCN1C(=O)C1CCCN1C(=O)OCc1ccccc1 (stereo not drawn) | – | – | inactive |
| CC(C)(C)N/N=C(\C(=O)Nc1cccc(Cl)c1)C1C(=O)Nc2ccccc2S1=O (stereo not drawn) | – | – | inactive |
| O=S(=O)(O)c1cc(N=Nc2cc(S(=O)(=O)O)c3cccnc3c2O)ccc1/C=C/c1ccc(N=Nc2cc(S(=O)(=O)O)c3cccnc3c2O)cc1S(=O)(=O)O (tested in a mixture with another compound) | 2.95 | 50.1 µM | – |
| Nc1nc(N)c(Br)c(Nc2ccc(Cl)c(Cl)c2)n1 | 52.5 | 155 µM | – |
| CCN(CC)C1C(=O)NC1C#Cc1ccccc1 (stereo not drawn) | > 200 | 85.1 µM | – |
| O=C1C2C(C(=O)N1OS(=O)(=O)c1ccccc1)N(Cc1ccccc1)C(=O)N2Cc1ccccc1 (stereo not drawn) | > 7.59 | > 7.59 µM | – |
| COC(=O)C1C2CCCN2OC1(C)CO (stereo not drawn) | > 200 | > 200 µM | – |
| COc1cc(/C=C/C(=O)c2c(=O)o[nH][n+]2-c2ccccc2)ccc1[O-] | – | – | inactive |
| CC1CCN(CC(=O)N2c3ccccc3Sc3cc4ccccc4cc32)CC1 | > 151 | > 151 µM | – |
| O=C(N=C1OC2C(OC(=O)c3ccccc3)C(COC(=O)c3ccccc3)OC2N1C(=O)c1ccccc1)c1ccccc1 (stereo not drawn) | > 200 | 107 µM | – |
| C=C(c1cc(C(=O)OC)c(OC)c(Br)c1C)c1cc(C(=O)OC)c(OC)c(Br)c1C | > 200 | 77.6 µM | – |
| CN1CCC(=O)/C(=C/c2ccccc2)C1 | – | – | inactive |
| COc1cccc(N=N/C(=N\NC(=O)c2cc(Br)ccc2O)c2ccc(N(CCC#N)CCC#N)cc2OC)c1 | > 100 | 13.5 µM | – |
| CC(=O)N1CCN(C23OC4(N5CCN(C(C)=O)CC5)C5C6CC(C7C6C4C72)C53)CC1 (stereo not drawn) | > 200 | > 200 µM | – |

| Structure (SMILES) | EC50 [µM] | IC50 | outcome |
| --- | --- | --- | --- |
| COc1c(Cl)cc(Cc2cc(Cl)c(OC)c([N+](=O)[O-])c2)cc1[N+](=O)[O-] | > 200 | > 200 µM | – |
| O=[N+]([O-])c1cccc2nc3ccccc3c(NCCCN3CCCCC3)c12 | > 2 | 0.0126 µM | – |
| Brc1csnn1 | > 200 | > 200 µM | – |
| FC(F)(F)c1ccc(C=NC23CC4CC(CC(C4)C2)C3)cc1 | > 61.7 | > 61.7 µM | – |
| CCCC/C=C/C/C=C/CCCCCCCCC(=O)OCC1CCCN2CCCCC12 (stereo not drawn) | > 200 | 7.94 µM | – |
| CCOC(=O)c1c(SCCN2CCCCC2)n(-c2ccccc2)c(=S)n(-c2ccccc2)c1=O | > 20 | > 20 µM | – |
| Cc1ccccc1NC(=O)C(=O)CC(=O)C1CCOC1=O (stereo not drawn) | – | – | inactive |
| CCOC(=O)Nc1cc2c(c(N)n1)N=C(c1ccc(Cl)cc1Cl)CN2 | > 10 | 0.017 µM | – |
| CCOC(=O)c1c(-c2ccc(OC)c(O)c2)c(C#N)c(=S)n(C2OC(COC(C)=O)C(OC(C)=O)C(OC(C)=O)C2OC(C)=O)c1-c1ccccc1 (stereo not drawn) | > 200 | 102 µM and 56.2 µM | – |
| Cc1ccc(C(=O)O/N=C2/CCCCC2CN(C)C)cc1 (stereo not drawn) | – | – | inactive |
| c1ccc2c3c([nH]c2c1)C1C2CCCCN2C(c2ccncc2)N1CC3 (stereo not drawn) | > 75.9 | 42.7 µM | – |
| CCCCC1(O)CC2CC1C(C)C2(C)C (stereo not drawn) | > 200 | > 200 µM | – |
| COc1cc(N(C)C)c(OC)cc1/C=C1\C=Cc2ccccc21 | > 17 | > 17 µM | – |
| Cc1cc(=O)c2ccc3c(ccc4c(=O)cc(C)[nH]c43)c2[nH]1 | > 200 | 11.5 µM | – |
| CC(C)c1ccccc1SCc1cc(=O)cc(CSc2ccccc2C(C)C)o1 | > 200 | 11.7 µM | – |
| N=c1nnc(=O)c2c(s1)-n1ncc(C(=O)O)c1NN2 | > 81.3 | > 81.3 µM | – |
| C=CC[C@]12CC(OC)C(OC)CC1(OC)O[C@@H](c1cc(OC)c(OC)c(OC)c1)[C@H]2C (stereo partly drawn) | > 200 | 155 µM | – |
| O=C(CC(c1ccccc1)C(C(=O)c1ccncc1)C(CC(=O)c1ccncc1)c1ccccc1)c1ccncc1 (stereo not drawn) | > 200 | > 200 µM | – |
| C=CCN1CC2CN=NC2(C#N)C1 (stereo not drawn) | > 200 | > 200 µM | – |
| C[C@@]12c3ccc4c(c3C(=O)c3occ(c31)[C@@H](O)C[C@H]2O)CCC4=O | > 200 | 17.4 µM | – |
| CCOC(=O)c1ccc(CS(=O)c2ccc([N+](=O)[O-])cc2)c([N+](=O)[O-])c1 (stereo not drawn) | > 69.2 | 21.4 µM | – |
